Measured values as given in patent publication US9399637B2, “Substituted heteroaryl compounds and methods of use” (Calitor Sciences, LLC, priority 2014, dated 2016).

Experiments:
[1] = Compound stability in human liver microsomes; format: in vitro ADME; conditions: pH 7.4; for half-life at 5 μM: human liver microsomes 0.5 mg protein/mL, compound 5 μM, NADPH, 37° C., read-out: Human T1/2; for CLint scaled at 5 μM: human liver microsomes, in vivo CLint extrapolated
Method: Human or rat liver microsomes incubations were conducted in duplicate in polypropylene tubes. The typical incubation mixtures consisted of human or rat liver microsomes (0.5 mg protein/mL), compounds of interest (5 μM) and NADPH (1.0 mM) in a total volume of 200 μL potassium phosphate buffer (PBS, 100 mM, pH 7.4). Compounds were dissolved in DMSO and diluted with PBS such that the final concentration of DMSO was 0.05%. The enzymatic reactions were commenced with the addition of […] after a 3-min preincubation and incubated in a water bath open to the air at 37° C. Reactions were terminated at various time points (0, 5, 10, 15, 30, 60 min) by adding equal volume of ice-cold acetonitrile. The samples were stored at […] until LC/MS/MS assays.
The concentrations of compounds in the incubation mixtures of human or rat liver microsomes were determined by a LC/MS/MS method. The ranges of the linearity in the concentration range were determined for each tested compounds.
A parallel incubation was performed using denatured microsomes as the negative control, and reactions were terminated at various time points (0, 15, 60 min) after incubation at 37° C.
Dextromethorphan (70 μM) was selected as the positive control, and reactions were terminated at various time points (0, 5, 10, 15, 30, 60 min) after incubation at 37° C. Both positive and negative control samples were included in each assay to ensure the integrity of the microsomal incubation system.
The concentrations of compounds in human or rat liver microsome incubations were plotted as a percentage of the relevant zero time point control for each reaction. The in vivo CLint were extrapolated (ref.: Naritomi, Y.; Terashita, S.; Kimura, S.; Suzuki, A.; Kagayama, A.; and Sugiyama, Y.; Prediction of human hepatic clearance from in vivo animal experiments and in vitro metabolic studies with liver microsomes from animals and humans. Drug Metab. Dispos., 2001, 29: 1316-1324).

JAK3 (h) = target: T1, JAK3 (h) (Homo sapiens, UniProt P52333); experiment: JAK3 kinase assay; format: biochemical
T1 construct: purchased Millipore UK Ltd (assays run there as a service)
T1 sequence (P52333 1-1124): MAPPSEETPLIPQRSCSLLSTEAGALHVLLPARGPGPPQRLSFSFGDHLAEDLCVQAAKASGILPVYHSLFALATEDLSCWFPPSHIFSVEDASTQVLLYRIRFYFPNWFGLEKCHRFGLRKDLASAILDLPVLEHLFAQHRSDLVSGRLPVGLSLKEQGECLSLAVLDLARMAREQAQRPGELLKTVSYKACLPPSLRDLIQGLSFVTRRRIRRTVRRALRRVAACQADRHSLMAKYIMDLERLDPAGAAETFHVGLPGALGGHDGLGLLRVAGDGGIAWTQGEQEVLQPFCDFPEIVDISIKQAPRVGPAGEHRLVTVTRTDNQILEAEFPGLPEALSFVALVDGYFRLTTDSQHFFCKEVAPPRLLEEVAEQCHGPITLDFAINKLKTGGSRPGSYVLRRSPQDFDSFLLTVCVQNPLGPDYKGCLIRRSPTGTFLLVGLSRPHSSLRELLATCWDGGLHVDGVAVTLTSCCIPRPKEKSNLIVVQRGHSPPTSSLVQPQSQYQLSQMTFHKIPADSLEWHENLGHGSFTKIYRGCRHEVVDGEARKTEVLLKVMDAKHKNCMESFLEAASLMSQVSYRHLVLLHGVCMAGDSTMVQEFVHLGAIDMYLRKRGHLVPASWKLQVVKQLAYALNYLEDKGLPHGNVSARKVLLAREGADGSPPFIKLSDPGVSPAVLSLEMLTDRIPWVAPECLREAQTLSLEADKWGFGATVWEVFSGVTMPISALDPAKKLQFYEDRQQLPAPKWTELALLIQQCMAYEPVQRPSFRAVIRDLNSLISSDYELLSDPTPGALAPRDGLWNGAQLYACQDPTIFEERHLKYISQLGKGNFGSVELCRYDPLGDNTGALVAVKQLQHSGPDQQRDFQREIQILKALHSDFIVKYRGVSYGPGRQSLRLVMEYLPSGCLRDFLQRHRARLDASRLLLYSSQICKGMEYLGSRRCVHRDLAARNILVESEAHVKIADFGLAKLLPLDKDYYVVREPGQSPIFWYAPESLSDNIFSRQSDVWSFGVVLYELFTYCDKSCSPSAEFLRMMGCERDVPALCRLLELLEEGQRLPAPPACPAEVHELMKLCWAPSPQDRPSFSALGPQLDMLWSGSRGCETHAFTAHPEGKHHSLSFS
Method: Kinase assays can be performed by measurement of incorporation of γ-^33P ATP into immobilized myelin basic protein (MBP). High binding white 384 well plates (Greiner) are coated with MBP (Sigma #M-1891) by incubation of 60 μL/well of 20 μg/mL MBP in Tris-buffered saline (TBS; 50 mM Tris pH 8.0, 138 mM NaCl, 2.7 mM KCl) for 24 h at 4° C. Plates are washed 3× with 100 μL TBS. Kinase reactions are carried out in a total volume of 34 μL in kinase buffer (5 mM Hepes pH 7.6, 15 mM NaCl, 0.01% bovine gamma globulin (Sigma #I-5506), 10 mM MgCl2, 1 mM DTT, 0.02% TritonX-100). Compound dilutions are performed in DMSO and added to assay wells to a final DMSO concentration of 1%. Each data point is measured in duplicate, and at least two duplicate assays are performed for each individual compound determination. Enzyme is added to final concentrations of 10 nM or 20 nM, for example. A mixture of unlabeled ATP and γ-^33P ATP is added to start the reaction (2×10^6 cpm of γ-^33P ATP per well (3000 Ci/mmole) and 10 μM unlabeled ATP, typically. The reactions are carried out for 1 h at room temperature with shaking Plates are washed 7× with TBS, followed by the addition of 50 μL/well scintillation fluid (Wallac). Plates are read using a Wallac Trilux counter. This is only one format of such assays; various other formats are possible, as known to one skilled in the art. […]

Row | Structure (SMILES) | half-life at 5 μM [1] | CLint scaled at 5 μM [1] | IC50 (JAK3 (h))
1 | CC(=O)N1CCC2(CCC(Nc3nc(Nc4ccc5c(C)n(C)nc5c4)ncc3Cl)CC2)CC1 [Ex. 7, 1-(9-((5-chloro-2-((2,3-dimethyl-2H-indazol-6-yl)amino)pyrimidin-4-yl)amino)-3-azaspiro[5.5]undecan-3-yl)ethanone] | 42.9 min | 40.5 mL/min/kg | 142 nM
2 | Cc1c2ccc(Nc3ncc(Cl)c(NC4CC5CN(C(=O)CC#N)CC5C4)n3)cc2nn1C (stereo not drawn) [Ex. 4, 3-(5-((5-chloro-2-((2,3-dimethyl-2H-indazol-6-yl)amino)pyrimidin-4-yl)amino)hexahydrocyclopenta[c]pyrrol-2(1H)-yl)-3-oxopropanenitrile] | 14.3 min | 122 mL/min/kg | 535 nM
